Test results published in patent US20190134148A1, “COMBINATION THERAPY” (BIG DNA LTD, priority 2016, published 2019).
Like-named read-outs stand apart in the source and are kept apart here.

Experiments:
[1] = test system: PHTX22L xenografts; settings: MTD level treatment; cited from earlier work
[2] = test system: WSU-DLCL2 lymphoma xenograft; settings: at MTD; cited from earlier work
[3] = molecular target: 20S proteasome (Homo sapiens, UniProt P20618+P28074); settings: cited from earlier work
[4] = test system: CWR22 human prostate cancer xenografts; settings: cited from earlier work
[5] = test system: DP54-Luc model; settings: in vivo; cited from earlier work
[6] = test system: HEK293 cells; test: Sulforhodamine B relative cell growth assay in HEK293 cells; assay type: cell-based; settings: HEK293 (αvβ3+ve); 10 μM proteasome inhibitor without cRGDfK
Method: Established methodology was used to prepare 80-100% confluent monolayers of HEK293 cells in T75 flasks. Cells were cultured in DMEM (Lonza) supplemented with 10% FBS (Gibco), 2 mM L-glutamine, 100 U/mL penicillin and 100 μg/mL streptomycin (“complete DMEM”).
The cells in T75 flasks were trypsinised and resuspended in complete DMEM. The cells were counted using a Neubauer chamber and seeded at approximate density of 3×10^4 cells/cm^2 and 7500 cells/cm^2 in 96 well flat bottomed tissue culture plates (Corning) 0.1 mL cell suspension per well. Cells were incubated for 24 hours at 37° C./5% CO2 (humidified). […]
Briefly: medium was removed from wells and replaced with an equal volume of PBS. […] Optical density (OD570nm) was determined using an ELISA plate reader (Dynex MRX, Dynex Technologies).
In total, 5 replicates of the experiment were carried out. Cells treated with peptide/BTZ mixtures or control mixtures were incubated for 24 hours at 37° C./5% CO2 (humidified) then analysed by sulforhodamine B assay.
The average of the background measurements (i.e. no cells, medium only) was subtracted from each reading. ‘Ti’ is OD570nm following 24 hours treatment with drugs. […]
Using these equations, control cell growth is assigned a relative cell growth value of 100% and all cell growth values are calculated relative to this figure. […]

[7] = phase II trials; heavily pretreated patient population; cited from earlier work
[8] = test system: chymotrypsin-like activity of the proteasome; settings: highest dose used in the phase I trial; cited from earlier work
[9] = test system: Cos7 cells; test: Sulforhodamine B relative cell growth assay in Cos7 cells; assay type: cell-based; settings: COS-7 (αvβ3−ve); 10 μM proteasome inhibitor without cRGDfK
[10] = molecular target: chymotrypsin-like sites (Homo sapiens, UniProt P28074); settings: cited from earlier work
Sequence of chymotrypsin-like sites (P28074 60-263): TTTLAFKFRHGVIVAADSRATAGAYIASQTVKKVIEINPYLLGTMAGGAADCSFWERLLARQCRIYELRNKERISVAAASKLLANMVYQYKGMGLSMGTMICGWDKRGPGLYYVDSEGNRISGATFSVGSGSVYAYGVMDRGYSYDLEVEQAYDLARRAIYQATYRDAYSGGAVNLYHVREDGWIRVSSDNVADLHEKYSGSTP

[11] = test system: NCI H-929 multiple myeloma cell line; test: NCI H-929 sub cutaneous tumour study with varied BTZ dose, TGI and TTE (Example 8); assay type: in vivo, mice; settings: day 18
Method: Cilengitide or vehicle was supplied as daily intra-peritoneal injection (45 mg/kg). […] After this point, dosing was continued in groups receiving 0.2 mg/kg and 0.5 mg/kg BTZ t cilengitide until day 31 to allow comparative tumour growth delay (i.e. difference in time to endpoint (TTE). […] TTE was calculated as TTE=[log(endpoint volume)-b]/m where TTE is expressed in days, endpoint volume is expressed in mm^3, b is the intercept, and m is the slope of the line obtained by linear regression of a log-transformed tumour growth data set. TTE values were plotted in Kaplan-Meier diagrams (FIGS. 9 and 10).

[12] = test system: T47D breast cancer cell line; test: Sulforhodamine B viability assay and isobologram / combination index in T47D cells; assay type: cell-based; settings: for CI: single agent
Method: For assessment of combined BTZ and cilengitide toxicity, T47D cells were seeded at a density of 7500 cells/cm^2 in 96-well cell culture plates and incubated for 24 hours. Cilengitide was diluted to 20 μM in complete DMEM, then 3 serial tenfold dilutions of this were performed in complete DMEM (2 μM, 200 nM and 20 nM). Complete DMEM containing no cilengitide was provided for negative controls.
These dilutions (or DMSO for wells containing no BTZ) were added to aliquots of complete DMEM containing 0-20 μM cilengitide for a 1/150 dilution. Aliquots (0.1 mL) of each mixture were added to wells already containing 0.1 mL medium (in duplicate), resulting in a matrix of cilengitide (10 nM-10 μM) and/or BTZ (1 nM-10 μM) or neither agent (diluent only).
OD570nm readings were divided by those resulting from negative control (diluent only) wells and expressed as a percentage. Three independent replicates of this experiment were carried out.
The isoboles were obtained similarly by extrapolation of points representing 50% reduction in viability from line graphs of % viability versus concentration of one agent at variable concentration with the other agent supplied at a fixed concentration.
The position of the points on this graph (FIG. 6) indicates whether a combined effect is synergistic (falling below/left of the line) antagonistic (falling above/right of this line) or additive (on or close to this line).
CA,x and CB,x are the concentrations of drug A and drug B used in combination to achieve x % drug effect. ICx,A and ICx,B are the concentrations for single agents to achieve the same effect.

[13] = test system: NCI H-929 human multiple myeloma cells; test: NCI-H929 sub-cutaneous xenograft mouse tumor model, 'high' bortezomib dose (Example 7); assay type: in vivo, SCID mouse; settings: for Complete response / No response / Partial response: mice of N = 10; for Complete response / No response / Partial response / Total RR %: bortezomib 1 mg/kg IV biweekly, cilengitide 45 mg/kg IP QD; for Total RR %: sum of PR+CR
Description: This was then continued until Day 21.
Partial response (PR) is defined as the first measurement of the tumor volume being 50% or less of its Day 1 volume for three consecutive measurements during the course of the study, and equal to or greater than 13.5 mm^3 for one or more of these three measurements. In a complete response (CR), the tumor volume was less than 13.5 mm^3 for three consecutive measurements during the course of the study. Total response rate (RR) is the sum of PR+CR. Treatment began on day 1 and was stopped on Day 21.

[14] = CD-1 mice; 4 mg/kg PO versus 0.8 mg/kg intravenously; cited from earlier work
[15] = Sprague-Dawley rats; AUC intravenous versus intra-gastric administration; cited from earlier work
[16] = Cilengitide oral bioavailability, plasma level by LC-MS after intra-gastric gavage; assay type: in vivo; settings: mice, 100 mg/kg intra-gastric gavage
Method: 3 mice were dosed with cilengitide at 100 mg/kg by intra-gastric gavage. Bleeds (0.1 mL) were taken before dosing and 5 and 15 minutes post dosing. Terminal bleeds (orbital vein) were taken at 60 minutes post-dose. All bleeds were transferred into Li-heparin tubes and plasma prepared by centrifugation. Aliquots of plasma (pooled per timepoint) were processed for analysis by addition of 3 volumes of acetonitrile, centrifuged for 1 minute at 13,000 rpm, then the supernatant recovered.
Samples were analysed by LC-MS alongside standards containing known amounts of cilengitide (1 ng/mL-1000 ng/mL). Cilengitide was undetectable in pre-dose, 5 minute and 15 minute time points. At the 60 minute time point: cilengitide levels were estimated to be 94.2 ng/mL.

[17] = at maximum tolerated dose (MTD)
[18] = By Day 42, treatment stopped on Day 21, N = 10

In the case of `CC(C)C[C@H](NC(=O)CNC(=O)c1cc(Cl)ccc1Cl)B(O)O` [Ixazomib, [(1R)-1-[[2-[(2,5-dichlorobenzoyl)amino]acetyl]amino]-3-methyl-butyl]boronic acid], the anti-tumoral effect [1] is listed as “only ixazomib was found to exhibit an anti-tumoral effect”, the anti-tumoral activity [2] is listed as “significant anti-tumoral activity” and the proteasome dissociation half-life [3] is listed as “approximately 18 minutes”. For the same compound, the “release from proteasome, fold faster than bortezomib” value [3] was “approximately 6 fold”, the anti-tumoral activity ([4]; at half the MTD) was “more effective than bortezomib” and the anti-tumoral activity [4, 17] was “effective anti-tumoral activity”. The “alleviation of osteolytic bone disease” value [5] was “effective”.

For `CC(C)C[C@H](NC(=O)[C@H](CCc1ccccc1)NC(=O)CN1CCOCC1)C(=O)N[C@@H](Cc1ccccc1)C(=O)N[C@@H](CC(C)C)C(=O)[C@@]1(C)CO1` [Carfilzomib], the “Growth relative to untreated control cells” value [6] is listed as “greater activity than ixazomib, delanzomib and oprozomib”, the partial response rate [7] is listed as 24% and the “inhibition of the chymotrypsin-like activity of the proteasome in blood of patients” value [8] is listed as 88%. For the same compound, the “Growth relative to untreated control cells” value [9] was “greater activity than ixazomib, delanzomib and oprozomib”.

For `C[C@@]12OC(=O)[C@]1([C@@H](O)[C@@H]1C=CCCC1)NC(=O)[C@@H]2CCCl` [Marizomib], the “inhibition of the chymotrypsin-like sites” value [10] is listed as “up to 100%”.

For `CC(C)C[C@H](NC(=O)[C@H](Cc1ccccc1)NC(=O)c1cnccn1)B(O)O` [Bortezomib], the “Tumour growth inhibition (TGI)” value ([11]; 0.5 mg/kg BTZ and below, without cilengitide) is listed as “virtually ineffective”, the “Tumour growth inhibition (TGI)” value ([11]; BTZ doses of 0.7 mg/kg and greater, biweekly intravenous) is listed as “almost complete TGI” and the anti-tumoral activity [2] is listed as “ineffective”. For the same compound, the CI [12] was 1.00, the proteasome dissociation half-life [3] was “approximately 110 minutes” and the “mice showing a complete response” value ([13]; By Day 8, bortezomib 1 mg/kg) was 10%. For the same compound, the “animals remained 'cured' (tumours did not regrow)” value ([13]; By Day 42, treatment stopped on Day 21) was 60%, the “animals that reached end point (tumour volume>2000 mm^3)” value [13, 18] was 1 and the animals that relapsed [13, 18] was 3 animals. The Complete response ([13]; Day 1) was 0, the No response ([13]; Day 1) was 10 and the Partial response ([13]; Day 1) was 0. The “Total RR %” value ([13]; Day 1, N = 10) was 0%, the Complete response ([13]; Day 4) was 0 and the No response ([13]; Day 4) was 7. For the same compound, the Partial response ([13]; Day 4) was 3, the “Total RR %” value ([13]; Day 4, N = 10) was 30% and the “Total RR %” value ([13]; Day 4, N = 10, listed as bortezomib) was 30%. For the same compound, the Complete response ([13]; Day 8) was 1, the No response ([13]; Day 8) was 3 and the Partial response ([13]; Day 8) was 6. The “Total RR %” value ([13]; Day 8, N = 10) was 70%, the Complete response ([13]; Day 12) was 4 and the No response ([13]; Day 12) was 2. It also gave a Partial response ([13]; Day 12) of 4, a Complete response ([13]; Day 15) of 4 and a No response ([13]; Day 15) of 2. For the same compound, the Partial response ([13]; Day 15) was 4, the Complete response ([13]; Day 18) was 4 and the No response ([13]; Day 18) was 1. The Partial response ([13]; Day 18) was 5, the “Total RR %” value ([13]; Day 18, N = 10) was 90% and the Complete response ([13]; Day 21) was 5. For the same compound, the No response ([13]; Day 21) was 1, the Partial response ([13]; Day 21) was 4 and the “Total RR %” value ([13]; Day 21, N = 10) was 90%. The “Total RR %” value ([13]; Day 21, N = 10, listed as bortezomib) was 90%, the “mice that failed to respond at all” value ([13]; last treatment day (Day 21), bortezomib 1 mg/kg) was 10% and the anti-tumoral activity [4, 17] was “effective anti-tumoral activity”. The estimated oral bioavailability [14] was “approximately 11%” and the calculated bioavailability [15] was 46%.

In the case of `CC(C)[C@H]1C(=O)N[C@@H](CCCN=C(N)N)C(=O)NCC(=O)N[C@@H](CC(=O)O)C(=O)N[C@H](Cc2ccccc2)C(=O)N1C` [Cilengitide], the “cilengitide levels in plasma” value ([16]; 5 minute time point) is reported as “undetectable”, the “cilengitide levels in plasma” value ([16]; 15 minute time point) is reported as “undetectable” and the level at 1 h ([16]; mouse, plasma, po, 60 minute time point, read-out: cilengitide levels in plasma) is reported as 94.2 ng/mL. It also gave an IC50 ([12]; read-out: Cilengitide (M), concentration resulting in 50% reduction in viability as single agent (IC50), bortezomib 0) of 6.2e-06 M, a CI [12] of 1.00 and a Complete response ([13]; Day 1) of 0. The No response ([13]; Day 1) was 10, the Partial response ([13]; Day 1) was 0 and the “Total RR %” value ([13]; Day 1, N = 10) was 0%. For the same compound, the Complete response ([13]; Day 4) was 0, the No response ([13]; Day 4) was 10 and the Partial response ([13]; Day 4) was 0. The “Total RR %” value ([13]; Day 4, N = 10) was 0%, the Complete response ([13]; Day 8) was 0 and the No response ([13]; Day 8) was 10. The Partial response ([13]; Day 8) was 0, the “Total RR %” value ([13]; Day 8, N = 10) was 0% and the Complete response ([13]; Day 12) was 0. The No response ([13]; Day 12) was 10, the Partial response ([13]; Day 12) was 0 and the “Total RR %” value ([13]; Day 12, N = 10) was 0%. For the same compound, the Complete response ([13]; Day 15) was 0, the No response ([13]; Day 15) was 10 and the Partial response ([13]; Day 15) was 0. For the same compound, the “Total RR %” value ([13]; Day 15, N = 10) was 0%, the Complete response ([13]; Day 18) was 0 and the No response ([13]; Day 18) was 10. For the same compound, the Partial response ([13]; Day 18) was 0, the “Total RR %” value ([13]; Day 18, N = 10) was 0% and the Complete response ([13]; Day 21) was 0. The No response ([13]; Day 21) was 10, the Partial response ([13]; Day 21) was 0 and the “Total RR %” value ([13]; Day 21, N = 10) was 0%.
